≈ marks a conversion by molar mass, not a printed value. Like-named read-outs stand apart in the source and are kept apart here.
Assays:
Candida albicans = experiment: Minimal Inhibitory Concentration (MIC) assay, broth microdilution per CLSI; type: cell-based; conditions: Candida albicans, read-out: Minimum Inhibitory Concentrations against Yeast Isolates, Candida albicans;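 note: two read times 24 hr and 48 hr of incubation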
Outline: (§1)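 Following CLSI procedure, compounds dissolved in DMSO on the assay day are diluted twofold and added to MOPS-buffered RPMI at pH 7.0. Saline suspensions of the yeasts, matched to 0.5 McFarland, are diluted 1:100 and inoculated, then plates incubate at 35° C for about 24-48 hr.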

Candida glabrata = experiment: as above; type: cell-based; conditions: Nakaseomyces glabratus, read-out: Minimum Inhibitory Concentrations against Yeast Isolates, Candida glabrata;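 note: two read times 24 hr and 48 hr of incubation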
Outline: as §1

Candida parapsilosis = experiment: as above; type: cell-based; conditions: Lodderomyces parapsilosis, read-out: Minimum Inhibitory Concentrations against Yeast Isolates, Candida parapsilosis;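 note: two read times 24 hr and 48 hr of incubation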
Outline: as §1

C. glabrata = experiment: Checkerboard FIC assay in combination with fluconazole (MIC alone and in combination, FICI); type: cell-based, Candida glabrata; conditions: for FICI of combination resulting in fluconazole MIC of: 2 ug/mL / FICI of combination resulting in fluconazole MIC of: 4 ug/mL / FICI of combination resulting in fluconazole MIC of: 8 ug/mL: FICI calculated using a fluconazole MIC of 16 μg/mL; for FICI of combination resulting in fluconazole MIC of: 2 ug/mL (value in parenthesis) / FICI of combination resulting in fluconazole MIC of: 4 ug/mL (value in parenthesis) / FICI of combination resulting in fluconazole MIC of: 8 ug/mL (value in parenthesis): FICI using a fluconazole MIC of 128 μg/mL; for MIC: Nakaseomyces glabratus; for Multiple of compound MIC to synergize fluconazole MIC to 2 ug/mL / Multiple of compound MIC to synergize fluconazole MIC to 4 ug/mL / Multiple of compound MIC to synergize fluconazole MIC to 8 ug/mL: concentration in combination as multiple of the compound's MIC alone; for Multiple of compound MIC to synergize fluconazole MIC to 2 ug/mL: fluconazole MIC 2 ug/mL; for Multiple of compound MIC to synergize fluconazole MIC to 4 ug/mL: fluconazole MIC 4 ug/mL; for Multiple of compound MIC to synergize fluconazole MIC to 8 ug/mL: fluconazole MIC 8 ug/mL; for Concentration of Methylgene compound to synergize fluconazole MIC to 2 ug/mL / Concentration of Methylgene compound to synergize fluconazole MIC to 4 ug/mL / Concentration of Methylgene compound to synergize fluconazole MIC to 8 ug/mL: in combination with fluconazole; for Concentration of Methylgene compound to synergize fluconazole MIC to 2 ug/mL: fluconazole MIC lowered to 2 ug/mL; for Concentration of Methylgene compound to synergize fluconazole MIC to 4 ug/mL: fluconazole MIC lowered to 4 ug/mL; for Concentration of Methylgene compound to synergize fluconazole MIC to 8 ug/mL: fluconazole MIC lowered to 8 ug/mL
Outline: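 A fluconazole synergy checkerboard was run against C. glabrata in MOPS-buffered RPMI (pH 7.0) for about 48 h at 35 °C. Each agent was diluted 2-fold, with one row and one column holding each agent alone for MIC determination. FICI was calculated from these MICs, using a 0.5 McFarland inoculum diluted 1:100 per CLSI.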

[1] = 24 hr reading (first value of cell 24 hr/48 hr)
[2] = 48 hr reading (second value of cell 24 hr/48 hr)
[3] = MIC of the example compound alone against C. glabrata in the checkerboard assay, approximately 48 hr, read-out: Methylgene MIC
[4] = test compound alone, C. glabrata, approx. 48 hr at 35° C., read-out: Compound MIC

Structure (SMILES) | MIC (Candida albicans; [1]) [µg/mL] | MIC (Candida albicans; [2]) [µg/mL] | MIC (Candida glabrata; [1]) [µg/mL] | MIC (Candida glabrata; [2]) [µg/mL] | MIC (Candida parapsilosis; [1]) [µg/mL] | MIC (Candida parapsilosis; [2]) [µg/mL] | FICI of combination resulting in fluconazole MIC of: 2 ug/mL (C. glabrata; C. glabrata) | FICI of combination resulting in fluconazole MIC of: 4 ug/mL (C. glabrata; C. glabrata) | FICI of combination resulting in fluconazole MIC of: 8 ug/mL (C. glabrata; C. glabrata) | FICI of combination resulting in fluconazole MIC of: 2 ug/mL (value in parenthesis) (C. glabrata; C. glabrata) | FICI of combination resulting in fluconazole MIC of: 4 ug/mL (value in parenthesis) (C. glabrata; C. glabrata) | FICI of combination resulting in fluconazole MIC of: 8 ug/mL (value in parenthesis) (C. glabrata; C. glabrata) | MIC (C. glabrata; [3]) [µg/mL] | MIC (C. glabrata; [4]) [µg/mL] | Multiple of compound MIC to synergize fluconazole MIC to 2 ug/mL (C. glabrata) | Multiple of compound MIC to synergize fluconazole MIC to 4 ug/mL (C. glabrata) | Multiple of compound MIC to synergize fluconazole MIC to 8 ug/mL (C. glabrata) | Concentration of Methylgene compound to synergize fluconazole MIC to 2 ug/mL (C. glabrata; C. glabrata) [µg/mL] | Concentration of Methylgene compound to synergize fluconazole MIC to 4 ug/mL (C. glabrata; C. glabrata) [µg/mL] | Concentration of Methylgene compound to synergize fluconazole MIC to 8 ug/mL (C. glabrata; C. glabrata) [µg/mL]
COCCOCCOCCNC(=O)c1ccc(CCCCc2ccc(CC(=O)NO)cc2)cc1 [Example 11, 4-(4-(4-(2-(hydroxyamino)-2-oxoethyl)phenyl)butyl)-N-(2-(2-(2-methoxyethoxy)ethoxy)ethyl)benzamide] | > 64 | > 64 | > 64 | > 64 | > 64 | > 64 | 0.375 | 0.375 | 0.625 | 0.266 | 0.156 | 0.188 | 8 | 8 | (¼x) | (⅛x) | (⅛x) | 2 | 1 | 1
COCCOCCOCCNS(=O)(=O)c1ccc(CCCCc2ccc(CC(=O)NO)cc2)cc1 [Example 12, N-hydroxy-2-(4-(4-(4-(N-(2-(2-(2-methoxyethoxy)ethoxy)ethyl)sulfamoyl)phenyl)butyl)phenyl)acetamide] | > 64 | > 64 | 4 (≈ 7.86 µM) | 16 (≈ 31.5 µM) | > 64 | > 64 | 0.313 | 0.250 | 0.375 | 0.266 | 0.156 | 0.188 | 16 | 16 | (¼x) | (⅛x) | (⅛x) | 4 | 2 | 2
COc1ccc(CCCCc2ccc(CC(=O)NO)cc2)cc1OC [Example 13, 2-(4-(4-(3,4-dimethoxyphenyl)butyl)phenyl)-N-hydroxyacetamide] | 8 (≈ 23.3 µM) | 16 (≈ 46.6 µM) | 2 (≈ 5.82 µM) | 4 (≈ 11.6 µM) | 16 (≈ 46.6 µM) | > 16 | 0.313 | 0.375 | 0.375 | 0.266 | 0.281 | 0.188 | 4 | 4 | (¼x) | (¼x) | (⅛x) | 1 | 1 | 0.5

Other lines, results leading:

MIC (Candida albicans; [1]) [µg/mL] | MIC (Candida albicans; [2]) [µg/mL] | MIC (Candida glabrata; [1]) [µg/mL] | MIC (Candida glabrata; [2]) [µg/mL] | MIC (Candida parapsilosis; [1]) [µg/mL] | MIC (Candida parapsilosis; [2]) [µg/mL] | FICI of combination resulting in fluconazole MIC of: 2 ug/mL (C. glabrata; C. glabrata) | FICI of combination resulting in fluconazole MIC of: 4 ug/mL (C. glabrata; C. glabrata) | FICI of combination resulting in fluconazole MIC of: 8 ug/mL (C. glabrata; C. glabrata) | FICI of combination resulting in fluconazole MIC of: 2 ug/mL (value in parenthesis) (C. glabrata; C. glabrata) | FICI of combination resulting in fluconazole MIC of: 4 ug/mL (value in parenthesis) (C. glabrata; C. glabrata) | FICI of combination resulting in fluconazole MIC of: 8 ug/mL (value in parenthesis) (C. glabrata; C. glabrata) | MIC (C. glabrata; [3]) [µg/mL] | MIC (C. glabrata; [4]) [µg/mL] | Multiple of compound MIC to synergize fluconazole MIC to 2 ug/mL (C. glabrata) | Multiple of compound MIC to synergize fluconazole MIC to 4 ug/mL (C. glabrata) | Multiple of compound MIC to synergize fluconazole MIC to 8 ug/mL (C. glabrata) | Concentration of Methylgene compound to synergize fluconazole MIC to 2 ug/mL (C. glabrata; C. glabrata) [µg/mL] | Concentration of Methylgene compound to synergize fluconazole MIC to 4 ug/mL (C. glabrata; C. glabrata) [µg/mL] | Concentration of Methylgene compound to synergize fluconazole MIC to 8 ug/mL (C. glabrata; C. glabrata) [µg/mL] | Structure (SMILES)
16 (≈ 48.9 µM) | > 64 | 32 (≈ 97.7 µM) | 64 (≈ 195 µM) | 32 (≈ 97.7 µM) | > 64 | > 0.563 | > 0.625 | > 0.750 | > 0.516 | > 0.531 | > 0.563 | > 16 | > 16 | – | – | – | 16 | 16 | 16 | O=C(Cc1ccc(CCCCc2ccc(C(=O)O)cc2)cc1)NO [Example 14, 4-(4-(4-(2-(hydroxyamino)-2-oxoethyl)phenyl)butyl)benzoic acid]
> 16 | > 16 | > 8 | > 8 | > 16 | > 16 | 0.375 | 0.500 | 0.625 | 0.266 | 0.281 | 0.188 | 8 | 8 | (¼x) | (¼x) | (⅛x) | 2 | 2 | 1 | O=C(Cc1ccc(CCCCc2ccc(O)cc2)cc1)NO [Example 15, N-hydroxy-2-(4-(4-(4-hydroxyphenyl)butyl)phenyl)acetamide]
> 16 | > 16 | > 32 | > 32 | > 16 | > 16 | 0.375 | 0.500 | 0.625 | 0.266 | 0.281 | 0.188 | 2 | 2 | (¼x) | (¼x) | (⅛x) | 0.5 | 0.5 | 0.25 | O=C(Cc1ccc(CCCCc2ccc(OCCCN3CCOCC3)cc2)cc1)NO [Example 16, N-hydroxy-2-(4-(4-(4-(3-morpholinopropoxy)phenyl)butyl)phenyl)acetamide]
16 (≈ 50.7 µM) | 32 (≈ 101 µM) | 1 (≈ 3.17 µM) | 2 (≈ 6.34 µM) | 32 (≈ 101 µM) | 32 (≈ 101 µM) | 0.313 | 0.375 | 0.500 | 0.266 | 0.281 | 0.313 | 2 | 2 | (¼x) | (¼x) | (¼x) | 0.5 | 0.5 | 0.5 | O=C(Cc1ccc(CCCCc2ccc(O)c(O)c2)cc1)NO [Example 19, 2-(4-(4-(3,4-dihydroxyphenyl)butyl)phenyl)-N-hydroxyacetamide]
